Measured values reported in patent publication US20040156869A1, “2-substituted quinazolin-4-ylamine analogues” (Neurogen Corporation, priority 2002, published 2004).

The compounds below were run against human capsaicin receptor (VR1) (Homo sapiens, UniProt Q8NER1) (assay: Capsaicin receptor binding assay ([3H]RTX competition, VR1-transfected HEK293 membranes)).
Sequence of human capsaicin receptor (VR1) (Q8NER1 whole entry): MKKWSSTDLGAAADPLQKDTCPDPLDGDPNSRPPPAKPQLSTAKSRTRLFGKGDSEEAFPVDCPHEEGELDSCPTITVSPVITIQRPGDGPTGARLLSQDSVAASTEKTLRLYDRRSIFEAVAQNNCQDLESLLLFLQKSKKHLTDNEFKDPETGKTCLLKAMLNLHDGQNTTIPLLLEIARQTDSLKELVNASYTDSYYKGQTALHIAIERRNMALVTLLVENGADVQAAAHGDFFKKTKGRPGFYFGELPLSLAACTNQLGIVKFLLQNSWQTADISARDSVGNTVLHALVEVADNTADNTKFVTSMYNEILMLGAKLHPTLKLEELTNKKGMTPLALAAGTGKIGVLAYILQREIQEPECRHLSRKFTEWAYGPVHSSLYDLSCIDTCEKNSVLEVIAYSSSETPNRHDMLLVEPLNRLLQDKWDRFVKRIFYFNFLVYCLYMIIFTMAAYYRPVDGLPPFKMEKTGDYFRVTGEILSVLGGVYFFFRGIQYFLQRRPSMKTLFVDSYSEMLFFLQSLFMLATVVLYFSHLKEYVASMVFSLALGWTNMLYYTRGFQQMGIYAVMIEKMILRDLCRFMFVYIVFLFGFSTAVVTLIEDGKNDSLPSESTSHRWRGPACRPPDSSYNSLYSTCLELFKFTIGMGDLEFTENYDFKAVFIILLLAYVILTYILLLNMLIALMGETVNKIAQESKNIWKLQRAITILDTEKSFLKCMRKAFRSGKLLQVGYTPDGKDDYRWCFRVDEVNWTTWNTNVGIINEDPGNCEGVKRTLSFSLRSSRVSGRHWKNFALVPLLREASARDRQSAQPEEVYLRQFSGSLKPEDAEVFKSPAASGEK

Ki, < 1000 nM:
COCCN(CCOC)Cc1nc(Nc2ccc(C(F)(F)F)cc2)c2ncc(-c3ncccc3C(F)(F)F)cc2n1 [Compound 670, [2-{[Bis-(2-methoxy-ethyl)-amino]-methyl}-7-(3-trifluoromethyl-pyridin-2-yl)-pyrido[3,2-d]pyrimidin-4-yl]-(4-trifluoromethyl-phenyl)-amine]
FC(F)(F)c1ccc(Nc2nc(CN3C=NCCC3)nc3cc(-c4ncccc4C(F)(F)F)ccc23)cc1 [Compound 671, [2-(5,6-Dihydro-4H-pyrimidin-1-ylmethyl)-7-(3-trifluoromethyl-pyridin-2-yl)-quinazolin-4-yl]-(4-trifluoromethyl-phenyl)-amine]
C[C@@H]1CN(Cc2nc(Nc3ccc(C(C)(C)C)cc3)c3ccc(-c4ncccc4Cl)cc3n2)CCO1 [Compound 672, (R)-(4-tert-Butyl-phenyl)-[7-(3-chloro-pyridin-2-yl)-2-(2-methyl-morpholin-4-ylmethyl)-quinazolin-4-yl]-amine]
CC(C)c1ccc(Nc2nc(CN3CCO[C@H](C)C3)nc3cc(-c4ncccc4Cl)ccc23)cc1 [Compound 673, (R)-[7-(3-Chloro-pyridin-2-yl)-2-(2-methyl-morpholin-4-ylmethyl)-quinazolin-4-yl]-(4-isopropyl-phenyl)-amine]
C[C@@H]1CN(Cc2nc(Nc3ccc(C(F)(F)F)cc3)c3ccc(-c4ncccc4Cl)cc3n2)CCO1 [Compound 674, (R)-[7-(3-Chloro-pyridin-2-yl)-2-(2-methyl-morpholin-4-ylmethyl)-quinazolin-4-yl]-(4-trifluoromethyl-phenyl)-amine]
C[C@@H]1CN(Cc2nc(Nc3ccc(C(C)(C)C)cc3)c3ccc(-c4ccncc4)cc3n2)C[C@H](C)O1 [Compound 675, (4-tert-Butyl-phenyl)-[2-(2,6-dimethyl-morpholin-4-ylmethyl)-7-pyridin-4-yl-quinazolin-4-yl]-amine (cis)]
C[C@@H]1CN(Cc2nc(Nc3ccc(C(C)(C)C)cc3)c3ccc(-c4cccnc4)cc3n2)C[C@H](C)O1 [Compound 676, (4-tert-Butyl-phenyl)-[2-(2,6-dimethyl-morpholin-4-ylmethyl)-7-pyridin-3-yl-quinazolin-4-yl]-amine (cis)]
C[C@@H]1CN(Cc2nc(Nc3ccc(C(C)(C)C)cc3)c3ccc(-c4cncnc4)cc3n2)C[C@H](C)O1 [Compound 677, (4-tert-Butyl-phenyl)-[2-(2,6-dimethyl-morpholin-4-ylmethyl)-7-pyrimidin-5-yl-quinazolin-4-yl]-amine (cis)]
COc1ncc(-c2ccc3c(Nc4ccc(C(C)(C)C)cc4)nc(CN4C[C@@H](C)O[C@@H](C)C4)nc3c2)c(OC)n1 [Compound 678, (4-tert-Butyl-phenyl)-[7-(2,4-dimethoxy-pyrimidin-5-yl)-2-(2,6-dimethyl-morpholin-4-ylmethyl)-quinazolin-4-yl]-amine (cis)]
FC(F)(F)c1ccc(Nc2nc(C3CCNCC3)nc3cc(-c4ncccc4C(F)(F)F)ccc23)cc1 [Compound 679, [2-Piperidin-4-yl-7-(3-trifluoromethyl-pyridin-2-yl)-quinazolin-4-yl]-(4-trifluoromethyl-phenyl)-amine]
CCC(C)c1ccc(Nc2nc(CN3C[C@@H](C)O[C@@H](C)C3)nc3cc(-c4ncccc4Cl)ccc23)cc1 (stereo partly drawn) [Compound 680, (4-sec-Butyl-phenyl)-[7-(3-chloro-pyridin-2-yl)-2-(2,6-dimethyl-morpholin-4-ylmethyl)-quinazolin-4-yl]-amine (cis)]
CC(C)c1ccc(Nc2nc(CN3C[C@@H](C)O[C@@H](C)C3)nc3cc(-c4ncccc4Cl)ccc23)cc1 [Compound 681, [7-(3-Chloro-pyridin-2-yl)-2-(2,6-dimethyl-morpholin-4-ylmethyl)-quinazolin-4-yl]-(4-isopropyl-phenyl)-amine (cis)]
C[C@@H]1CN(Cc2nc(Nc3ccc(C(C)(C)C)cc3)c3ccc(-c4ncccc4C(F)(F)F)cc3n2)CCO1 [Compound 682, (R)-(4-tert-Butyl-phenyl)-[2-(2-methyl-morpholin-4-ylmethyl)-7-(3-trifluoromethyl-pyridin-2-yl)-quinazolin-4-yl]-amine]
C[C@@H]1CN(Cc2nc(Nc3ccc(C(F)(F)F)cc3)c3ccc(-c4ncccc4C(F)(F)F)cc3n2)CCO1 [Compound 683, (R)-[2-(2-Methyl-morpholin-4-ylmethyl)-7-(3-trifluoromethyl-pyridin-2-yl)-quinazolin-4-yl]-(4-trifluoromethyl-phenyl)-amine]
CC(C)c1ccc(Nc2nc(CN3CCO[C@H](C)C3)nc3cc(-c4ncccc4C(F)(F)F)ccc23)cc1 [Compound 684, (R)-(4-Isopropyl-phenyl)-[2-(2-methyl-morpholin-4-ylmethyl)-7-(3-trifluoromethyl-pyridin-2-yl)-quinazolin-4-yl]-amine]
C[C@H]1CN(Cc2nc(Nc3ccc(C(C)(C)C)cc3)c3ccc(-c4ncccc4C(F)(F)F)cc3n2)CCO1 [Compound 685, (S)-(4-tert-Butyl-phenyl)-[2-(2-methyl-morpholin-4-ylmethyl)-7-(3-trifluoromethyl-pyridin-2-yl)-quinazolin-4-yl]-amine]
C[C@H]1CN(Cc2nc(Nc3ccc(C(F)(F)F)cc3)c3ccc(-c4ncccc4C(F)(F)F)cc3n2)CCO1 [Compound 686, (S)-[2-(2-Methyl-morpholin-4-ylmethyl)-7-(3-trifluoromethyl-pyridin-2-yl)-quinazolin-4-yl]-(4-trifluoromethyl-phenyl)-amine]
CC(C)c1ccc(Nc2nc(CN3CCO[C@@H](C)C3)nc3cc(-c4ncccc4C(F)(F)F)ccc23)cc1 [Compound 687, (S)-(4-Isopropyl-phenyl)-[2-(2-methyl-morpholin-4-ylmethyl)-7-(3-trifluoromethyl-pyridin-2-yl)-quinazolin-4-yl]-amine]
CC(C)c1ccc(Nc2nc(CN3C[C@@H](C)O[C@@H](C)C3)nc3cc(-c4ncccc4C(F)(F)F)ccc23)cc1 [Compound 688, [2-(2,6-Dimethyl-morpholin-4-ylmethyl)-7-(3-trifluoromethyl-pyridin-2-yl)-quinazolin-4-yl]-(4-isopropyl-phenyl)-amine (cis)]
CCN1CCC(c2nc(Nc3ccc(C(F)(F)F)cc3)c3ccc(-c4ncccc4C(F)(F)F)cc3n2)CC1 [Compound 689, [2-(1-Ethyl-piperidin-4-yl)-7-(3-trifluoromethyl-pyridin-2-yl)-quinazolin-4-yl]-(4-trifluoromethyl-phenyl)-amine]
CCCN1CCC(c2nc(Nc3ccc(C(F)(F)F)cc3)c3ccc(-c4ncccc4C(F)(F)F)cc3n2)CC1 [Compound 690, [2-(1-Propyl-piperidin-4-yl)-7-(3-trifluoromethyl-pyridin-2-yl)-quinazolin-4-yl]-(4-trifluoromethyl-phenyl)-amine]
FC(F)(F)c1ccc(Nc2nc(C3CCN(Cc4ccncc4)CC3)nc3cc(-c4ncccc4C(F)(F)F)ccc23)cc1 [Compound 691, [2-(1-Pyridin-4-ylmethyl-piperidin-4-yl)-7-(3-trifluoromethyl-pyridin-2-yl)-quinazolin-4-yl]-(4-trifluoromethyl-phenyl)-amine]
Cn1ccnc1CN1CCC(c2nc(Nc3ccc(C(F)(F)F)cc3)c3ccc(-c4ncccc4C(F)(F)F)cc3n2)CC1 [Compound 692, [2-[1-(1-Methyl-1H-imidazol-2-ylmethyl)-piperidin-4-yl]-7-(3-trifluoromethyl-pyridin-2-yl)-quinazolin-4-yl]-(4-trifluoromethyl-phenyl)-amine]
CC(=O)N1CCC(c2nc(Nc3ccc(C(F)(F)F)cc3)c3ccc(-c4ncccc4C(F)(F)F)cc3n2)CC1 [Compound 693, 1-{4-[4-(4-Trifluoromethyl-phenylamino)-7-(3-trifluoromethyl-pyridin-2-yl)-quinazolin-2-yl]-piperidin-1-yl}-ethanone]
CCC(=O)N1CCC(c2nc(Nc3ccc(C(F)(F)F)cc3)c3ccc(-c4ncccc4C(F)(F)F)cc3n2)CC1 [Compound 694, 1-{4-[4-(4-Trifluoromethyl-phenylamino)-7-(3-trifluoromethyl-pyridin-2-yl)-quinazolin-2-yl]-piperidin-1-yl}-propan-1-one]
FC(F)(F)c1ccc(Nc2nc([C@@H]3CCCN3)nc3cc(-c4ncccc4C(F)(F)F)ccc23)cc1 [Compound 695, (S)-[2-Pyrrolidin-2-yl-7-(3-trifluoromethyl-pyridin-2-yl)-quinazolin-4-yl]-(4-trifluoromethyl-phenyl)-amine]
CCCN1CCC[C@H]1c1nc(Nc2ccc(C(F)(F)F)cc2)c2ccc(-c3ncccc3C(F)(F)F)cc2n1 [Compound 696, (S)-[2-(1-Propyl-pyrrolidin-2-yl)-7-(3-trifluoromethyl-pyridin-2-yl)-quinazolin-4-yl]-(4-trifluoromethyl-phenyl)-amine]
CC(C)(C)c1ccc(Nc2nc(CN3CCCS3(=O)=O)nc3cc(-c4ncccc4C(F)(F)F)ccc23)cc1 [Compound 697, (4-tert-Butyl-phenyl)-[2-(1,1-dioxo-1λ^6-isothiazolidin-2-ylmethyl)-7-(3-trifluoromethyl-pyridin-2-yl)-quinazolin-4-yl]-amine]
CC(=O)c1ccc(Nc2nc(CN3C[C@@H](C)O[C@@H](C)C3)nc3cc(-c4ncccc4C(F)(F)F)cnc23)cc1 [Compound 698, 1-{4-[2-(2,6-Dimethyl-morpholin-4-ylmethyl)-7-(3-trifluoromethyl-pyridin-2-yl)-pyrido[3,2-d]pyrimidin-4-ylamino]-phenyl}-ethanone (cis)]
FC(F)(F)c1ccc(Nc2nc(Cn3ccnc3)nc3cc(-c4ncccc4C(F)(F)F)cnc23)cc1 [Compound 699, [2-Imidazol-1-ylmethyl-7-(3-trifluoromethyl-pyridin-2-yl)-pyrido[3,2-d]pyrimidin-4-yl]-(4-trifluoromethyl-phenyl)-amine]
FC(F)(F)c1ccc(Nc2nc(Cn3ccnc3)nc3cc(-c4ncccc4Cl)cnc23)cc1 [Compound 700, [7-(3-Chloro-pyridin-2-yl)-2-imidazol-1-ylmethyl-pyrido[3,2-d]pyrimidin-4-yl]-(4-trifluoromethyl-phenyl)-amine]
